{"source": "patent US20090093424A1", "about": "“Markers for melanoma” (University College Dublin, priority 2006, published 2009)", "tested_on": "FABP5 gene expression in melanoma cell lines (WM793 and derivatives)", "test": "RT-PCR analysis via cycle limitation to assess effect of DAC treatment on FABP5 expression in melanoma cell lines", "type": "cell-based, human", "protocol": "Total RNA was extracted from untreated (−DAC) and treated (+DAC) cells and subjected to RT-PCR analysis via a cycle limitation method.\nRNA extracts were pre-digested with DNase I prior to cDNA synthesis using the DNA-Free kit (Ambion). Single-stranded cDNA was synthesized from 1 μg total RNA using the ImProm-II Reverse Transcription kit (Promega). Recombinant RNasin Ribonuclease Inhibitor (20 U/20 μL reaction; Promega) was added to prevent RNase-mediated degradation. Two negative controls were also utilised, namely minus reverse transcriptase enzyme control and minus template control. Following inactivation of reverse transcriptase (RT) at 70° C. for 15 minutes, aliquots of generated single-stranded cDNA were subjected to polymerase chain reaction (PCR) amplification via a cycle limitation approach.\n18 s was used as a control gene whose expression is unaffected by DAC treatment.\nPrimers used were as follows: […]", "data": [{"smiles": "Nc1ncn([C@H]2C[C@H](O)[C@@H](CO)O2)c(=O)n1", "note": "[DAC, 5-aza-2′-deoxycytidine]", "values": [{"measurement": "expression of the FABP5 gene after DAC treatment", "setting": "derivative melanoma cell lines of WM793, treated (+DAC) vs untreated (-DAC), 18s control gene, FIG. 6", "result": "increased expression of the FABP5 gene"}, {"measurement": "recovery of FABP5 expression by DAC treatment, aggressive derivative lines compared with parental line", "setting": "more aggressive melanoma cell lines vs parental WM793, FIG. 6", "result": "recovered greater expression in these cells than in the parental melanoma cell line"}]}]}
